Values of other authors as cited in patent US12017989B2, “Controlled release pharmaceutical formulations” (United Therapeutics Corporation, priority 2013, dated 2024).

Details: continuous subcutaneous infusion using a pump; Wade et al., J Clin Pharmacol 2004

Compound: CCCCC[C@H](O)CC[C@@H]1[C@H]2Cc3cccc(OCC(=O)O)c3C[C@H]2C[C@H]1O [treprostinil]
- peak-to-trough variation of concentration profile: 20-30%
